Drawing on US8658646B2, “Pyrrolopyrazine kinase inhibitors” (Hoffmann-LaRoche Inc., priority 2011, dated 2014), this text covers IC50 for 19 compounds.

The target of experiment [1] is T1, JAK3: Recombinant human kinase domain (Homo sapiens, UniProt P52333).
T1 construct: JAK3: Recombinant human kinase domain from Millipore (Cat #14-629) or prepared; purchased Millipore 14-629
Briefly: Determination of IC50 of Janus Kinase (JAK) inhibition, radioactive end-point 33P-ATP assay, JAK3. It is filed as biochemical. Conditions: ATP 1.5 uM, peptide 50 uM, 20 minutes, read-out: JAK3-INHIB-DR/v1~NO ADDITIVE~Enzyme_Conc = 100.

The target in experiment [2] is T2, recombinant human SYK360-635 (Homo sapiens, UniProt P43405).
T2 construct: made in house
Nature of the experiment: Determination of IC50 of Spleen Tyrosine Kinase (SYK) inhibition, 33P ATP filtration assay. It is filed as biochemical. Conditions: SYK aa 360-635 0.5 nM; ATP 20 μM, peptide 5 μM, 0.1% BSA; read-out: SYK_ENZYME_FILTRATION/v1, BSA.

Structures are written as SMILES.

T1 sequence (P52333 822-1111 limits assumed): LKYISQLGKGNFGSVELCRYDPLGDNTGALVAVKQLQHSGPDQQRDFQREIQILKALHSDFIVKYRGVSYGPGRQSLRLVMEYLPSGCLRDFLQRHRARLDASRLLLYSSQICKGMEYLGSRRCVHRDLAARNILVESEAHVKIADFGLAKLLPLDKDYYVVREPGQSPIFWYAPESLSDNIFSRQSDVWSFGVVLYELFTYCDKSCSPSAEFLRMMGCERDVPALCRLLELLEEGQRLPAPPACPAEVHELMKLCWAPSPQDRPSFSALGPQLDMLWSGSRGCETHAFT

For the compound `CC(Cc1ccccc1)NC(=O)c1c[nH]c2ncc(-c3nn(C)c4cc(Cl)ccc34)nc12` (centres unmarked) [Example I-150, 2-(6-Chloro-1-methyl-1H-indazol-3-yl)-5H-pyrrolo[2,3-b]pyrazine-7-carboxylic acid (1-methyl-2-phenyl-ethyl)-amide], the figures for the IC50 in experiment [1] and in experiment [2] were 22.5 nM and 1540 nM, respectively.

Take `C[C@H](CN1CC[C@H](F)C1)NC(=O)c1c[nH]c2ncc(-c3nn(C)c4cc(Cl)ccc34)nc12` [Example I-122, 2-(6-Chloro-1-methyl-1H-indazol-3-yl)-5H-pyrrolo[2,3-b]pyrazine-7-carboxylic acid [(R)-2-((S)-3-fluoro-pyrrolidin-1-yl)-1-methyl-ethyl]-amide]: the figures for the IC50 in experiment [1] and in experiment [2] were 82.4 nM and 284 nM, respectively.

Regarding `Cc1cc(Cn2nc(-c3cnc4[nH]cc(C(=O)NC(C)C)c4n3)c3ccc(Cl)cc32)no1` [Example I-312, 2-[6-Chloro-1-(5-methyl-isoxazol-3-ylmethyl)-1H-indazol-3-yl]-5H-pyrrolo[2,3-b]pyrazine-7-carboxylic acid isopropylamide], the IC50 in experiment [1] is 8.25 nM; in experiment [2], 73.6 nM.

On to `Cn1nc(-c2cnc3[nH]cc(C(=O)N[C@H]4CC[C@@H](O)C4)c3n2)c2ccc(F)cc21` (relative stereo) [Example I-46, 2-(6-Fluoro-1-methyl-1H-indazol-3-yl)-5H-pyrrolo[2,3-b]pyrazine-7-carboxylic acid (cis-3-hydroxy-cyclopentyl)-amide], for which the IC50 in experiment [1] amounted to 2.86 nM; in experiment [2], 10.3 nM.

In the case of `Cn1nc(-c2cnc3[nH]cc(C(=O)NC4CCCC(N)C4)c3n2)c2ccc(Cl)cc21` (centres unmarked) [Example I-169, 2-(6-Chloro-1-methyl-1H-indazol-3-yl)-5H-pyrrolo[2,3-b]pyrazine-7-carboxylic acid (3-amino-cyclohexyl)-amide], the IC50 was 391 nM in experiment [1] and 12 nM in experiment [2].

As to `CC(C)NC(=O)c1c[nH]c2ncc(-c3nn(C4CNC4)c4cc(F)ccc34)nc12` [Example I-104, 2-(1-Azetidin-3-yl-6-fluoro-1H-indazol-3-yl)-5H-pyrrolo[2,3-b]pyrazine-7-carboxylic acid isopropylamide], the IC50 is 5.68 nM in experiment [1] and 41 nM in experiment [2].

As to `C[C@H](CN1CC[C@@H](F)C1)NC(=O)c1c[nH]c2ncc(-c3nn(C)c4cc(Cl)ccc34)nc12` [Example I-121, 2-(6-Chloro-1-methyl-1H-indazol-3-yl)-5H-pyrrolo[2,3-b]pyrazine-7-carboxylic acid [(R)-2-((R)-3-fluoro-pyrrolidin-1-yl)-1-methyl-ethyl]-amide], the IC50 in experiment [1] turned out to be 124 nM; in experiment [2] it was 372 nM.

For `Cn1nc(-c2cnc3[nH]cc(C(=O)N[C@@H]4CCC[C@H](C#N)C4)c3n2)c2ccc(Cl)cc21` (relative stereo) [Example I-167, 2-(6-Chloro-1-methyl-1H-indazol-3-yl)-5H-pyrrolo[2,3-b]pyrazine-7-carboxylic acid (cis-3-cyano-cyclohexyl)-amide], the results for the IC50 in experiment [1] and in experiment [2] were 197 nM and 75 nM, respectively.

Turning to `CC(C)NC(=O)c1c[nH]c2ncc(-c3nn(CCCN(C)C)c4cc(Cl)cc(F)c34)nc12` [Example I-131, 2-[6-Chloro-1-(3-dimethylamino-propyl)-4-fluoro-1H-indazol-3-yl]-5H-pyrrolo[2,3-b]pyrazine-7-carboxylic acid isopropylamide], the values for the IC50 in experiment [1] and in experiment [2] were 7.06 nM and 39.8 nM, respectively.

For the compound `CC(C)NC(=O)c1c[nH]c2ncc(-c3nn(C)c4ccc(Oc5cccc(Cl)c5)cc34)nc12` [Example I-280, 2-[5-(3-Chloro-phenoxy)-1-methyl-1H-indazol-3-yl]-5H-pyrrolo[2,3-b]pyrazine-7-carboxylic acid isopropylamide], the figures for the IC50 in experiment [1] and in experiment [2] were 240 nM and 377 nM, respectively.

As to `CC(C)NC(=O)c1c[nH]c2ncc(-c3nn(C)c4ccc(OC(F)F)cc34)nc12` [Example I-283, 2-(5-Difluoromethoxy-1-methyl-1H-indazol-3-yl)-5H-pyrrolo[2,3-b]pyrazine-7-carboxylic acid isopropylamide], the IC50 in experiment [1] was found to be 14.3 nM; in experiment [2] it was 4.5 nM.

As to `CC(NC(=O)c1c[nH]c2ncc(-c3nn(C)c4cc(F)ccc34)nc12)[C@H]1C[C@H](O)C1` (stereo partly drawn) [Example I-75, 2-(6-Fluoro-1-methyl-1H-indazol-3-yl)-5H-pyrrolo[2,3-b]pyrazine-7-carboxylic acid [1-(trans-3-hydroxy-cyclobutyl)-ethyl]-amide], the IC50 worked out at 20.6 nM in experiment [1] and 9.2 nM in experiment [2].

As to `C[C@H](Cn1ccnc1)NC(=O)c1c[nH]c2ncc(-c3nn(C)c4cc(Cl)ccc34)nc12` [Example I-134, 2-(6-Chloro-1-methyl-1H-indazol-3-yl)-5H-pyrrolo[2,3-b]pyrazine-7-carboxylic acid ((R)-2-imidazol-1-yl-1-methyl-ethyl)-amide], the IC50 in experiment [1] turned out to be 67.3 nM; in experiment [2], 482 nM.

For the compound `COC[C@H](C)NC(=O)c1c[nH]c2ncc(-c3nn(C)c4cc(Cl)ccc34)nc12` [Example I-165, 2-(6-Chloro-1-methyl-1H-indazol-3-yl)-5H-pyrrolo[2,3-b]pyrazine-7-carboxylic acid ((S)-2-methoxy-1-methyl-ethyl)-amide], the IC50 in experiment [1] amounted to 1.14 nM; in experiment [2], 17 nM.

`CCC(C)(C)NC(=O)c1c[nH]c2ncc(-c3nn(C)c4cc(F)ccc34)nc12` [Example I-375, 2-(6-Fluoro-1-methyl-1H-indazol-3-yl)-5H-pyrrolo[2,3-b]pyrazine-7-carboxylic acid (1,1-dimethyl-propyl)-amide]: the IC50 in experiment [1] is 22.9 nM; in experiment [2], 3.38 nM.

For the compound `COC[C@@H](NC(=O)c1c[nH]c2ncc(-c3nn(C)c4cc(F)ccc34)nc12)[C@@H](C)O` [Example I-177, 2-(6-Fluoro-1-methyl-1H-indazol-3-yl)-5H-pyrrolo[2,3-b]pyrazine-7-carboxylic acid ((1R,2R)-2-hydroxy-1-methoxymethyl-propyl)-amide], the results for the IC50 in experiment [1] and in experiment [2] were 80.9 nM and 704 nM, respectively.

Take `C[C@@H](O)[C@@H](NC(=O)c1c[nH]c2ncc(-c3nn(C)c4cc(F)ccc34)nc12)C(=O)N1CC(F)C1` [Example I-198, 2-(6-Fluoro-1-methyl-1H-indazol-3-yl)-5H-pyrrolo[2,3-b]pyrazine-7-carboxylic acid [(1R,2R)-1-(3-fluoro-azetidine-1-carbonyl)-2-hydroxy-propyl]-amide]: the IC50 in experiment [1] worked out at 1.61 nM; in experiment [2], 120 nM.

On to `Cn1nc(-c2cnc3[nH]cc(C(=O)N[C@H]4CC[C@H](N)CC4)c3n2)c2ccc(Cl)cc21` [Example I-146, 2-(6-Chloro-1-methyl-1H-indazol-3-yl)-5H-pyrrolo[2,3-b]pyrazine-7-carboxylic acid (trans-4-amino-cyclohexyl)-amide], for which the IC50 in experiment [1] stood at 18.3 nM; in experiment [2], 8.65 nM.

As for `CC(NC(=O)c1c[nH]c2ncc(-c3nn(C)c4cc(F)ccc34)nc12)c1ccno1` (centres unmarked) [Example I-55, 2-(6-Fluoro-1-methyl-1H-indazol-3-yl)-5H-pyrrolo[2,3-b]pyrazine-7-carboxylic acid (1-isoxazol-5-yl-ethyl)-amide], the results for the IC50 in experiment [1] and in experiment [2] were 16.9 nM and 56.4 nM, respectively.
